How the values were obtained:
OSBP = biological target: T1, OSBP (Homo sapiens, UniProt P22059); assay: Fluorescence polarisation (FP) competition with NBD-cholesterol, OSBP; format: binding; conditions: single dose; for OSBP (FP) inhibition: Dose = 10 µM
T1 construct: OSBP(377-807); host or cells: E. coli OverExpress C41
T1 sequence (P22059 377-807): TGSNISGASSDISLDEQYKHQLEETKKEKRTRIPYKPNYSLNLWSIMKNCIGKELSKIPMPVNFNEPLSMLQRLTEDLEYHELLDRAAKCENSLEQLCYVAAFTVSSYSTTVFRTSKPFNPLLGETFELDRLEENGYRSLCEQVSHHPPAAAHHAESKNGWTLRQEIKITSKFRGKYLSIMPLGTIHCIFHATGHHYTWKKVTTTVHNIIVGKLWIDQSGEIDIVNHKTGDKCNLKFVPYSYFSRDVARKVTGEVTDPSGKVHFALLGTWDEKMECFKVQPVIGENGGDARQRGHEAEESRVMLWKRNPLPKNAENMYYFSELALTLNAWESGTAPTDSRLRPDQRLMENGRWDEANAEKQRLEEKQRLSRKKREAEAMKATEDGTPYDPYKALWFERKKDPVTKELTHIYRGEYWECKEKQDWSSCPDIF
Description: Protein expression constructs
Human ASTER domains of Aster-A(359-547), -B(364-552) and -C(318-504) were subcloned into a pGEX-6p-2rbs vector, thus introducing the cloning artifact ‘GPLGS’.3 The pGEX-6P-1-GST-OSBP(377- […]
a gift from James H. Hurley (University of California).4 The pHIS_2His6_Thrombin_STARD4(2-205;C75S) plasmid was a gift from Young Jun Im (Chonnam National University).5 STARD5A was a gift from Nicola Burgess-Brown (Addgene plasmid #42392; http://n2t.net/addgene:42392; […]
Protein expression and purification […]
vectors including an N-terminal PreScission-cleavable glutathione S-transferase (GST)-tag were expressed in Escherichia coli (E. coli) OverExpress C41 in Terrific Broth (TB) medium for 16 h at 18 °C after the induction with 0.1 mM isopropyl β-D-1-thiogalactopyranoside (IPTG). Cells were harvested at 3500 × g for 15 minutes and lysed by sonication in buffer containing 50 mM HEPES pH 7.5, 300 mM NaCl, 10 %v/v glycerol, 5 mM dithiothreitol (DTT), 0.1 %v/v Triton X-100 and protease inhibitor mix HP plus (Serva). The lysate was purified by affinity chromatography on a GSTrap FF column (Cytiva) using an ÄKTA Start (Cytiva) in buffer containing 50 mM HEPES pH 7.5, 300 mM NaCl, 10 %v/v glycerol, 5 mM DTT and 0.01 %v/v Triton X-100. The GST-tag was cleaved overnight on the column at 4 °C. The Aster sterol binding domains were further purified by size-exclusion chromatography (SEC) on a HiLoad 16/600 Superdex 75 pg (Cytiva) in buffer containing 20 mM HEPES pH 7.5, 300 mM NaCl, 10 %v/v […]
STARD5(6-213) harboring an N-terminal His6-Tag were expressed in E. coli BL21(DE3) in Luria-Bertani Broth (LB) medium for approximately 16 h at 18 °C after induction with 0.15 mM IPTG. Cells were harvested at 3500 × g for 15 minutes and lysed by sonication in buffer containing 50 mM HEPES pH 7.5, 150 mM NaCl, 5 %v/v glycerol, 5 mM DTT, 0.1 %v/v Triton X -100 and ethylenediaminetetraacetic acid (EDTA)-free protease inhibitor cocktail (Sigma-Aldrich). The cleared lysate was purified by affinity chromatography on a Ni-NTA Superflow Cartridge (Qiagen) using an ÄKTA Start (Cytiva) in buffer containing 50 mM HEPES pH 7.5, 150 mM NaCl, 5 %v/v glycerol, 5 mM DTT. START domains were eluted by using elution buffer containing 50 mM HEPES pH 7.5, 150 mM NaCl, 5 %v/v glycerol, 5 mM DTT and 500 mM imidazole. Proteins were further purified by SEC on a HiLoad 16/600 Superdex 75 pg (Cytiva) in buffer containing 20 mM HEPES pH 7.5, 150 mM NaCl, 5 %v/v glycerol and 2 mM DTT.
The ORP domain of human OSBP(377-807) in the pGEX-6p-1 vector with an N-terminal PreScission-cleavable GST-tag was expressed in E. coli OverExpress C41 in LB medium for 16 h at 18 °C after induction with 0.1 mM IPTG. Cells were harvested at 3500 × g for 15 minutes and lysed by sonication in buffer containing 20 mM HEPES pH 7.5, 300 mM NaCl, 10 %v/v glycerol, 5 mM DTT, 0.1 %v/v Triton X-100 and EDTA-free protease inhibitor cocktail (Sigma-Aldrich). The cleared lysate was purified by affinity chromatography on a GSTrap HF column (Cytiva) using an ÄKTA Start (Cytiva) in buffer containing 20 mM HEPES pH 7.5, 300 mM NaCl, 10 %v/v glycerol, 5 mM DTT. OSBP(377 -807) was eluted by using elution buffer containing 20 mM HEPES pH 7.5, 300 mM NaCl, 10 %v/v glycerol, 5 mM DTT and 10 mM reduced glutathione. Proteins were further purified by SEC on a HiLoad 16/600 Superdex 75 pg (Cytiva) using an ÄKTA Explorer (Cytiva) in buffer containing 20 mM HEPES pH 7.5, 150 mM NaCl, 10 %v/v glycerol and 2 mM DTT.
The ORP domains of human ORP1(534-950) in pET24b(+) and ORP2(49-480) in the pET24b(+) vector including an N-terminal His6-Tag were expressed in E. coli BL21(DE3) in TB medium for approximately 16 h at 18 °C after induction with 0.1 mM IPTG. Cells were collected at 3500 × g for 15 minutes and lysed by sonification in buffer containing 10 mM Tris-HCl pH 8, 300 mM NaCl, 5 % glycerol, 2 mM DTT, 0.1 % Triton X-100 and EDTA-free protease inhibitor cocktail (Sigma-Aldrich). The cleared […]

STARD1 = biological target: T2, STARD1 (Homo sapiens, UniProt P49675); assay: Fluorescence polarisation (FP) competition with NBD-cholesterol, STARD1; format: binding; conditions: for IC50: mean of three experiments run in technical duplicates; for inhibition at 10 µM / STARD1 (FP) inhibition: single dose, Dose = 10 µM
T2 construct: STARD1(66-284); made in house; host or cells: E. coli BL21(DE3)
T2 sequence (P49675 66-284): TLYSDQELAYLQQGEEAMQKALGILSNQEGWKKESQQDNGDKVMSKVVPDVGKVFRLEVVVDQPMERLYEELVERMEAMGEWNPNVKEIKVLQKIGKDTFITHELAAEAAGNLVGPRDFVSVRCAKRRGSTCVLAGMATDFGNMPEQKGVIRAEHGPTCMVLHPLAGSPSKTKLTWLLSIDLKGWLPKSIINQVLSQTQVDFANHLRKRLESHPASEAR

Compound: C[C@]12CC[C@@H]3C[C@H]1CC[C@@]21C(=Nc2ccc(Br)cc21)O3 (racemic) [Compound 15b]
- inhibition at 10 µM (OSBP): 7%
- IC50 (STARD1): > 80 µM
- inhibition at 10 µM (STARD1): 27%

Compound: CC12CCC3CC1CCC21C(=Nc2ccc(N4CCOCC4)cc21)O3 (racemic) [Compound 19a]
- inhibition at 10 µM (OSBP): 3%
- IC50 (STARD1): > 80 µM
- inhibition at 10 µM (STARD1): 20%

Compound: CC12CCC3CC1CCC21C(=Nc2ccc(Br)cc21)O3 (single isomer, unassigned; (+)) [(+)-15b]
- inhibition at 10 µM (OSBP): 13.1%
- IC50 (STARD1): > 80 µM
- inhibition at 10 µM (STARD1): 7%

Compound: CC12CCC3CC1CCC21C(=Nc2ccc(N4CCOCC4)cc21)O3 (single isomer, unassigned; (+)) [(+)-19a]
- inhibition at 10 µM (OSBP): 3.4%
- IC50 (STARD1): > 80 µM
- STARD1 (FP) inhibition (STARD1): 12%

Compound: CC12CCC3CC1CCC21C(=Nc2ccc(N4CCOCC4)cc21)O3 (single isomer, unassigned; (-)) [(−)-19a]
- OSBP (FP) inhibition (OSBP): 6.2%
- IC50 (STARD1): > 80 µM
- STARD1 (FP) inhibition (STARD1): 30%

Compound: C[C@@]12CC[C@H]3C[C@@H]1CC[C@]21C(=Nc2ccc(Br)cc21)O3 [(−)-15b]
- inhibition at 10 µM (OSBP): 2.8%
- IC50 (STARD1): 42.6 µM
- inhibition at 10 µM (STARD1): 38%

Compound: CC(C)Oc1ccc(C(=O)Nc2nc3c(s2)CN(C(=O)OC(C)(C)C)CC3)cc1 [Autogramin-2, reference compound]
- OSBP (FP) inhibition (OSBP): 9.0%
- IC50 (STARD1): > 80 µM
- STARD1 (FP) inhibition (STARD1): 22%

Compound: Cc1c2c(nc3ccccc13)[C@@]1(C)CC[C@@H](O)C[C@H]1CC2 [Compound 2a]
- inhibition at 10 µM (OSBP): 10%
- inhibition at 10 µM (STARD1): 30%

Compound: C[C@]12CC[C@@H](O)C[C@H]1CCc1c2nc2ccccc2c1-c1ccccc1 [Compound 2b]
- OSBP (FP) inhibition (OSBP): -12.0%
- STARD1 (FP) inhibition (STARD1): -3.33%

Compound: Cc1c2c(nc3cc(Br)ccc13)[C@@]1(C)CC[C@@H](O)C[C@H]1CC2 [Compound 2c]
- OSBP (FP) inhibition (OSBP): -4.0%
- STARD1 (FP) inhibition (STARD1): 70%

Compound: C[C@]12CC[C@@H](O)C[C@H]1CCc1c2nc2ccccc2c1-c1ccc(F)cc1 [Compound 2d]
- inhibition at 10 µM (OSBP): 0%
- inhibition at 10 µM (STARD1): -8%

Compound: C[C@]12CC[C@@H](O)C[C@H]1CCc1c2nc2ccc(Cl)cc2c1-c1ccccc1 [Compound 2e]
- OSBP (FP) inhibition (OSBP): 10.6%
- STARD1 (FP) inhibition (STARD1): -8%

Compound: C[C@]12CC[C@@H](O)C[C@H]1CCc1c2[nH]c2ncccc12 [Compound 3]
- inhibition at 10 µM (OSBP): 2.5%
- inhibition at 10 µM (STARD1): -3.33%

Compound: C[C@]12CC[C@@H](O)C[C@H]1CCC[C@]21Nc2ccccc2-n2cccc21 [Compound 4]
- inhibition at 10 µM (OSBP): 21%
- OSBP (FP) inhibition (OSBP): 10.0%
- STARD1 (FP) inhibition (STARD1): 20%
- inhibition at 10 µM (STARD1): 35%

Compound: C[C@]12CC[C@@H](O)C[C@H]1CCC[C@]21NC(=O)c2ccccc2N1 [Compound 5a]
- inhibition at 10 µM (OSBP): 9.1%
- OSBP (FP) inhibition (OSBP): 15.5%
- STARD1 (FP) inhibition (STARD1): 1.67%
- inhibition at 10 µM (STARD1): -1.67%

Compound: C[C@]12CC[C@@H](O)C[C@H]1CCC[C@]21NC(=O)c2ccc(F)cc2N1 [Compound 5b]
- inhibition at 10 µM (OSBP): 8.2%
- OSBP (FP) inhibition (OSBP): 24.6%
- STARD1 (FP) inhibition (STARD1): 1.67%
- inhibition at 10 µM (STARD1): 3.33%

Compound: COc1ccc2c(c1)C(=O)N[C@]1(CCC[C@@H]3C[C@H](O)CC[C@@]31C)N2 [Compound 5c]
- inhibition at 10 µM (OSBP): 18.2%
- OSBP (FP) inhibition (OSBP): 6.4%
- STARD1 (FP) inhibition (STARD1): -3.33%
- inhibition at 10 µM (STARD1): 5%

Compound: C[C@]12CC[C@@H](O)C[C@H]1CCc1nc3ccccc3nc12 [Compound 7a]
- inhibition at 10 µM (OSBP): 4%
- inhibition at 10 µM (STARD1): 23%

Compound: Cc1cc2nc3c(nc2cc1C)[C@@]1(C)CC[C@@H](O)C[C@H]1CC3 [Compound 7b]
- inhibition at 10 µM (OSBP): 24%
- inhibition at 10 µM (STARD1): 12%

Compound: C[C@]12CC[C@@H](O)C[C@H]1CCc1nc3cc(F)c(F)cc3nc12 [Compound 7c]
- OSBP (FP) inhibition (OSBP): 8.0%
- STARD1 (FP) inhibition (STARD1): 12%

Compound: C[C@]12CC[C@@H](O)C[C@H]1CCc1nc3cc(Cl)c(Cl)cc3nc12 [Compound 7d]
- OSBP (FP) inhibition (OSBP): -1.0%
- STARD1 (FP) inhibition (STARD1): 17%

Compound: C[C@]12CC[C@@H](O)C[C@H]1CCc1nc3cc(Br)c(Br)cc3nc12 [Compound 7e]
- OSBP (FP) inhibition (OSBP): 3.0%
- STARD1 (FP) inhibition (STARD1): 13%

Compound: C[C@]12CC[C@@H](O)C[C@H]1CCc1sc(N)nc12 [Compound 8a]
- inhibition at 10 µM (OSBP): 18.6%
- inhibition at 10 µM (STARD1): 5%

Compound: Cc1nc2c(s1)CC[C@@H]1C[C@H](O)CC[C@]21C [Compound 8b]
- OSBP (FP) inhibition (OSBP): -1.3%
- STARD1 (FP) inhibition (STARD1): 8%

Compound: C[C@]12CC[C@@H](O)C[C@H]1CCc1sc(-c3cccnc3)nc12 [Compound 8c]
- OSBP (FP) inhibition (OSBP): 17.3%
- STARD1 (FP) inhibition (STARD1): -1.67%

Compound: COc1ccc(-c2nc3c(s2)CC[C@@H]2C[C@H](O)CC[C@]32C)cc1 [Compound 8d]
- inhibition at 10 µM (OSBP): 2.6%
- inhibition at 10 µM (STARD1): 42%

Compound: C[C@]12CC[C@@H](O)C[C@H]1CCc1sc(-c3ccc(F)cc3)nc12 [Compound 8e]
- OSBP (FP) inhibition (OSBP): 1.3%
- STARD1 (FP) inhibition (STARD1): 17%

Compound: C[C@]12CC[C@@H](O)C[C@H]1CCc1[nH]c(-c3ccccc3)nc12 [Compound 9]
- inhibition at 10 µM (OSBP): 5%
- inhibition at 10 µM (STARD1): 10%

Compound: C[C@]12CC[C@@H](O)C[C@H]1CCc1c2[nH]c2ccccc12 [Compound 10a]
- OSBP (FP) inhibition (OSBP): 1.3%
- STARD1 (FP) inhibition (STARD1): 35%

Compound: C[C@]12CC[C@@H](O)C[C@H]1CCc1c2[nH]c2ccc(Br)cc12 [Compound 10b]
- OSBP (FP) inhibition (OSBP): -12.0%
- STARD1 (FP) inhibition (STARD1): -23%

Compound: C[C@]12CC[C@@H](O)C[C@H]1CCc1c2[nH]c2ccc(Cl)cc12 [Compound 10c]
- OSBP (FP) inhibition (OSBP): -10.0%
- STARD1 (FP) inhibition (STARD1): -12%
